Experimental data as given in patent publication US11247994B2, “6-dithio-substituted-2′-deoxyguanosine compound, preparation method thereof and use thereof” (ZHEJIANG UNIVERSITY, priority 2018, dated 2022).
Where two headings read alike, the source gives them in different places.

What was measured:
[1] = system: human non-small cell lung cancer A549; assay: MTT assay, tumor cell growth inhibition, A549; format: cell-based; details: 48 hours
Excerpt: (§1) MTT Assay—Inhibitory Effect of 6-dithio-substituted-2′-deoxyguanosine Derivatives on Tumor Cell Growth
(§2) We measured the tumor cell growth inhibitory activity of candidate compounds by MTT assay. Human tumor cells in logarithmic growth phase were digested with 0.25% pancreatin for a certain time, centrifuged, re-suspended and counted with a blood cell counting plate to prepare a cell suspension, and the cell suspension was adjusted to 1.0×10^4-1×10^5 cells/mL. The cell suspension was inoculated into a 96-well culture plate, 100 μL per well, and cultured in an incubator with saturated humidity, 37° C. and 5% CO2 for 24 hours until the cells completely adhered to the wall. The test compound was diluted to the required concentration with a complete medium, the complete medium of the 96-well culture plate inoculated with human tumor cells was sucked out, a medicament-containing medium was added, 100 μL per well, the final concentration of DMSO was less than 0.1%, and the culture plate was put in an incubator for 48 hours. 10 μl of MTT was added to each well of the 96-well plate, and the culture was continued for 4 h. The culture was stopped and the culture solution in the well was carefully sucked off. 150 μL DMSO was added to each well, and shaken at a low speed for 10 min on a shaking table, so that the crystal was fully dissolved. The absorbance of each well was measured at OD 570 nm of an enzyme-linked immunosorbent assay instrument. At the same time, zeroing wells (the culture medium, MTT, dimethyl sulfoxide) and control wells (cells, a drug dissolution medium with the same concentration, a culture solution, MTT, dimethyl sulfoxide) were set up, and the cell growth inhibitory activity was calculated with the corresponding solvents as the control. 3-6 multiple wells in each group were set up with repetition of several times. Cell viability of control=(Adrug group−Azeroing well)/(Acontrol well−Azeroing well)*100%. Drawing was drawn, the data were fitted into a concentration response curve with a variable slope, and IC50 value was calculated from the curve.

[2] = system: human leukemia cells K562; assay: MTT assay, tumor cell growth inhibition, K562; format: cell-based; details: 48 hours
Excerpt: as §1, §2

[3] = system: NCM460; assay: MTT assay, cell growth inhibition, NCM460; format: cell-based; details: Homo sapiens, 48 hours, read-out: Tumor cell growth inhibition IC50, NCM460
Excerpt: as §1, §2

[4] = system: human colon cancer cells HT29; assay: MTT assay, tumor cell growth inhibition, HT29; format: cell-based; details: HT-29, 48 hours
Excerpt: as §1, §2

[5] = system: human liver cancer cells HepG2; assay: MTT assay, tumor cell growth inhibition, HepG2; format: cell-based; details: 48 hours
Excerpt: as §1, §2

[6] = target: T1, TrxR/Trx-1 (Homo sapiens, UniProt P10599); assay: Ellman test, inhibition of TrxR/Trx-1 activity; format: biochemical
T1 sequence (P10599 2-105 limits assumed): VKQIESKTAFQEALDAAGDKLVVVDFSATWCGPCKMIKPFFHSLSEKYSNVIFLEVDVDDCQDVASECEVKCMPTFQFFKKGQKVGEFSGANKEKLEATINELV
Excerpt: Ellman Test—Inhibitory Effect of 6-dithio-substituted-2′-deoxyguanosine Derivative Analogues on TrxR/Trx-1 Activity
A TrxR/TR experiment based on the Ellman reaction was used to determine the inhibitory activity of candidate compounds. Ellman reaction is that 5,5′-dithiobis (2-nitrobenzoic acid) (DTNB) reacts with sulfhydryl (—SH) to form a yellow substance with absorption at 412 nm. The increase of absorption can be equivalent to the decrease of NADPH mediated by TrxR, thus further judging the activity of TrxR/Trx-1. All experiments were carried out on 96-well plates. Before the start of the enzyme reaction, five groups of corresponding test compound stock solutions with different concentrations were prepared. In the TrxR/Trx-1 reaction, a total volume per well was 60 μL, including 100 mM HEPES, 5 mM EDTA (HE buffer, pH 7.5), 1 mM NADPH, 1.0 μM TrxR, 0.8 μM Trx-1, 2.5 mg/mL bovine insulin and the required concentration of compounds to be tested. No compound to be tested was added to the control group. No compound to be tested, TrxR and Trx-1 were added in the blank group. The plate was shaken on an oscillator for 30 seconds to fully mix the reactants. After incubation at 37° C. for 30 min, 100 μL of the prepared mixture containing 6 M guanidine hydrochloride, 50 mm Tris and 10 mm DTNB was added to terminate the reaction. After 15 minutes of incubation, the absorbance was measured at 412 nm. Finally, TrxR/Trx-1 activity %=(Atest−Akb)/(Acontrol−Akb), that is, the relative percentage of TrxR/Trx-1 activity was the activity inhibited by adding 2′-deoxyguanosine derivatives relative to the activity without 2′-deoxyguanosine derivatives. The data were fitted into a concentration response curve with a variable slope, and the IC50 value was calculated from the curve.

[7] = system: human melanoma cells A375; assay: MTT assay, tumor cell growth inhibition, A375; format: cell-based; details: A-375, 48 hours
Excerpt: as §1, §2

[8] = system: human colon cancer cells HCT116; assay: MTT assay, tumor cell growth inhibition, HCT116; format: cell-based; details: HCT-116, 48 hours
Excerpt: as §1, §2

[9] = system: human breast cancer cells MCF7; assay: MTT assay, tumor cell growth inhibition, MCF7; format: cell-based; details: 48 hours
Excerpt: as §1, §2

[10] = system: human breast cancer cells Bcap37; assay: MTT assay, tumor cell growth inhibition, Bcap37; format: cell-based; details: 48 hours
Excerpt: as §1, §2

[11] = system: human colon cancer cell line HCT116 subcutaneous transplanted tumor; assay: Tumor-bearing test in nude mice, HCT116 subcutaneous transplanted tumor (tumor volume, TUNEL); format: in vivo; details: HCT116 model; for Extent of apoptosis in tumor tissue (TUNEL staining, rank order): frozen tumor sections, DAPI and TUNEL, G group = blank; for Inhibitory effect on the growth of subcutaneous transplanted tumor tissue in nude mice (rank order, from slope of tumor volume): compound A 2 mg/kg first 8 times, 10 mg/kg last 4 times, others equimolar, KB = blank
Excerpt: Tumor-Bearing Test in Nude Mice—Inhibitory Effect of 6-Dithio-Substituted-2′-Deoxyguanosine Derivatives on the Growth of Subcutaneous Transplanted Tumor Tissue in Nude Mice
1) Tumor-Bearing Mouse Model of Human Colon Cancer Cell Line HCT116
(§3) We took human colon cancer cell line HCT116 as the research object, and established a subcutaneous transplanted tumor model of human colon cancer in 32 immunodeficient nude mice. The 24th generation HCT116 cells in logarithmic growth phase were digested with pancreatin to prepare a single-cell suspension, and 1×10^7 cells were inoculated subcutaneously in the right armpit of male nude mice about 5 weeks old. After inoculation, cyclophosphamide (100 mg/kg) was injected intraperitoneally for two consecutive days. […] On the 20th day after colon cancer cell HCT116 was implanted subcutaneously, nude mice were divided into 7 groups by a random number table method, including a test drug group, a positive control group and a blank control group. Specifically, group A: the compound A was administrated; Group B: the compound B was administrated; Group C: the compound C was administrated; Group D: the compound D was administrated; Group E: the compound 6-thio-DG was administrated; Group F: the compound PX-12 was administrated; Group G: blank group, without administration of any compound. Except group C with 3 rats and group G with 4 rats, all other 5 groups had 5 rats, they mice were labeled and injected by tail vein once every two days for 24 days, 12 times, with the dose of compound A being 2 mg/kg for the first 8 times and 10 mg/kg for the last 4 times, and the dosages of other drugs being the same molar weights. The tumor volume was calculated by taking the length of the tumor as the longest diameter and the width as the corresponding vertical diameter, and the tumor volume V=(length×width^2) mm^3/2. 48 hours after the last treatment, blood was taken from the eyes, and then the animals were killed. Blood was centrifuged to get the supernatant, and then blood biochemical analysis was performed. Paraffin embedded sections of fixed tissues were stained with HE. The tumor mass in a frozen tissue was sectioned in a frozen state, and then stained by DAPI and TUNEL to judge the apoptosis of the tumor tissue in nude mice.

[12] = system: human colon cancer cells SW620; assay: MTT assay, tumor cell growth inhibition, SW620; format: cell-based; details: SW-620, 48 hours
Excerpt: as §1, §2

[13] = Blood biochemical analysis and HE staining of tissues in HCT116 tumor-bearing nude mice; format: in vivo; details: tail vein once every two days, 12 times, blood 48 hours after the last treatment
Protocol: as §3

[14] = tail vein once every two days for 24 days
[15] = Ellman reaction, 37° C. 30 min, absorbance 412 nm, read-out: IC50, inhibition of TrxR/Trx-1 activity

| Structure (SMILES) | IC50 [1] | IC50 [2] | IC50 [3] | IC50 [4] | IC50 [5] | IC50 [7] | IC50 [8] | IC50 [9] | IC50 [10] | Extent of apoptosis in tumor tissue (TUNEL staining, rank order) [11] | Inhibitory effect on the growth of subcutaneous transplanted tumor tissue in nude mice (rank order, from slope of tumor volume) [11, 14] | IC50 [12] | Alanine aminotransferase [13] | Albumin [13] | Alkaline phosphatase [13] | Aspartate aminotransferase [13] | BUN [13] | Chloride ion [13] | Creatine kinase [13] | Creatinine [13] | further results |
| --- | --- | --- | --- | --- | --- | --- | --- | --- | --- | --- | --- | --- | --- | --- | --- | --- | --- | --- | --- | --- | --- |
| Nc1nc(SSCc2ccc(F)cc2)c2ncn(C3C[C@H](O)[C@@H](CO)O3)c2n1 (stereo partly shown) [B, 6-(p-fluorobenzyldithio)-2′-deoxyguanosine] | 13.5 µM | 10.1 µM | > 1000 µM | 3.02 µM | < 10 µM | 0.52 µM | 2.66 µM | 15.6 µM | 21 µM | D group>A group≈B group≈E group (6-thio-dG group)>C group>F group (PX-12 group)>G group (KB group) | D>B≈A≈6-thio-dG>PX-12>C>KB | 1.71 µM | 105.9 U/L | 26.3 g/L | 31.0 U/L | 254.4 U/L | 14.8 mmol/L | 124.0 mmol/L | 2169 U/L | 8.67 µmol/L | IC50 ([6]; read-out: TrxR/Trx-1 IC50): 9.78 µM; Ability to inhibit the growth of transplanted tumor tissue compared with positive controls ([11]; tail vein once every two days for 24 days, equimolar doses): close to that of the positive control 6-thio-dG and stronger than that of the positive control PX-12; Glucose [13]: 2.29 mmol/L; Potassium ion [13]: 6.26 mmol/L; Sodium ion [13]: 158.0 mmol/L; Total bilirubin [13]: 0.90 µmol/L; Total cholesterol [13]: 2.76 mmol/L; Total protein [13]: 50.7 g/L; Triglyceride [13]: 0.52 mmol/L |
| Nc1nc(Cl)nc2c1ncn2[C@H]1C[C@H](O)[C@@H](CO)O1 [Cladribine, reference compound] | – | 7.86 µM | > 1000 µM | 9.44 µM | – | – | 28.4 µM | > 100 µM | > 100 µM | – | – | > 100 µM | – | – | – | – | – | – | – | – | IC50 [6, 15]: > 100 µM |
| CC(C)(C)SSc1nc(N)nc2c1ncn2C1C[C@H](O)[C@@H](CO)O1 (stereo partly shown) [Compound C, 6-(tert-butyldithio)-2′-deoxyguanosine] | 35.8 µM | 28.7 µM | > 1000 µM | 7.37 µM | 10 to 50 µM | 3.06 µM | 21.8 µM | – | 35.1 µM | D group>A group≈B group≈E group (6-thio-dG group)>C group>F group (PX-12 group)>G group (KB group) | D>B≈A≈6-thio-dG>PX-12>C>KB | – | 25.5 U/L | 27.9 g/L | 33.7 U/L | 128.3 U/L | 9.00 mmol/L | 120.5 mmol/L | 980.7 U/L | 6.67 µmol/L | IC50 [6, 15]: 47.7 µM; Glucose [13]: 2.99 mmol/L; Potassium ion [13]: 6.17 mmol/L; Sodium ion [13]: 159.0 mmol/L; Total bilirubin [13]: 0.80 µmol/L; Total cholesterol [13]: 2.65 mmol/L; Total protein [13]: 51.6 g/L; Triglyceride [13]: 1.15 mmol/L |
| CCC(C)SSc1ncc[nH]1 (stereo not shown) [PX-12, 1-methylpropyl-2-imidazolyl disulfide, reference compound] | 7.43 µM | 21.7 µM | > 1000 µM | 3.37 µM | 10 to 50 µM | 2.98 µM | 34.5 µM | > 100 µM | > 100 µM | D group>A group≈B group≈E group (6-thio-dG group)>C group>F group (PX-12 group)>G group (KB group) | D>B≈A≈6-thio-dG>PX-12>C>KB | 1.68 µM | 30.8 U/L | 33.0 g/L | 44.2 U/L | 169.0 U/L | 8.10 mmol/L | 109.9 mmol/L | 1434 U/L | 3.20 µmol/L | IC50 [6, 15]: 2.55 µM; Glucose [13]: 1.47 mmol/L; Potassium ion [13]: 7.64 mmol/L; Sodium ion [13]: 155.8 mmol/L; Total bilirubin [13]: -0.90 µmol/L; Total cholesterol [13]: 2.53 mmol/L; Total protein [13]: 56.9 g/L; Triglyceride [13]: 1.18 mmol/L |
